# From patent publication US12077503B2, “Substituted cyclic amides and their use as herbicides” (FMC CORPORATION, priority 2015, dated 2024)
# How the values were obtained:
# [1] = test system: barnyardgrass (Echinochloa crus-galli); assay: Test C preemergence; format: in vivo; conditions: for Plant response rating (scale of 0 to 100), Barnyardgrass: 0 is no effect, 100 is complete control; for Plant response rating, Barnyardgrass: scale 0 to 100, 0 no effect, 100 complete control
# Summary of the method: (§1)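 Assessment: visual, 13–15 d after treatment, 0 (no effect) to 100 (complete control) relative to controls. Treatment: preemergence to seeds in loam-sand soil, or postemergence to 1- to 4-leaf plants in peat-based medium. Formulation: non-phytotoxic solvent mixture with surfactant.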
# [2] = test system: corn (Zea mays); assay: Test C preemergence; format: in vivo; conditions: for Plant response rating (scale of 0 to 100), Corn: 0 is no effect, 100 is complete control; for Plant response rating, Corn: scale 0 to 100, 0 no effect, 100 complete control
# Summary of the method: as §1
# [3] = test system: morningglory (Ipomoea coccinea); assay: Test C preemergence; format: in vivo; conditions: for Plant response rating (scale of 0 to 100), Morningglory: 0 is no effect, 100 is complete control; for Plant response rating, Morningglory: scale 0 to 100, 0 no effect, 100 complete control
# Summary of the method: as §1
# [4] = test system: waterhemp (common waterhemp, Amaranthus rudis); assay: Test C preemergence; format: in vivo; conditions: for Plant response rating (scale of 0 to 100), Waterhemp: 0 is no effect, 100 is complete control; for Plant response rating, Waterhemp: scale 0 to 100, 0 no effect, 100 complete control
# Summary of the method: as §1
# [5] = test system: wheat (winter wheat, Triticum aestivum); assay: Test C preemergence; format: in vivo; conditions: for Plant response rating (scale of 0 to 100), Wheat: 0 is no effect, 100 is complete control; for Plant response rating, Wheat: scale 0 to 100, 0 no effect, 100 complete control
# Summary of the method: as §1
# [6] = test system: velvetleaf (Abutilon theophrasti); assay: Test C preemergence; format: in vivo; conditions: for Plant response rating (scale of 0 to 100), Velvetleaf: 0 is no effect, 100 is complete control; for Plant response rating, Velvetleaf: scale 0 to 100, 0 no effect, 100 complete control
# Summary of the method: as §1
# [7] = test system: foxtail, giant (giant foxtail, Setaria faberii); assay: Test C preemergence; format: in vivo; conditions: for Plant response rating (scale of 0 to 100), Foxtail, Giant: 0 is no effect, 100 is complete control; for Plant response rating, Foxtail, Giant: scale 0 to 100, 0 no effect, 100 complete control
# Summary of the method: as §1
# [8] = test system: pigweed (Amaranthus retroflexus); assay: Test C preemergence; format: in vivo; conditions: for Plant response rating (scale of 0 to 100), Pigweed: 0 is no effect, 100 is complete control; for Plant response rating, Pigweed: scale 0 to 100, 0 no effect, 100 complete control
# Summary of the method: as §1
# [9] = test system: nutsedge, yellow (yellow nutsedge, Cyperus esculentus); assay: Test C preemergence; format: in vivo; conditions: for Plant response rating (scale of 0 to 100), Nutsedge, Yellow: 0 is no effect, 100 is complete control; for Plant response rating, Nutsedge, Yellow: scale 0 to 100, 0 no effect, 100 complete control
# Summary of the method: as §1
# [10] = test system: oilseed rape (Brassica napus); assay: Test C preemergence; format: in vivo; conditions: for Plant response rating (scale of 0 to 100), Oilseed Rape: 0 is no effect, 100 is complete control; for Plant response rating, Oilseed Rape: scale 0 to 100, 0 no effect, 100 complete control
# Summary of the method: as §1
# [11] = test system: ryegrass, Italian (Italian ryegrass, Lolium multiflorum); assay: Test C preemergence; format: in vivo; conditions: for Plant response rating (scale of 0 to 100), Ryegrass, Italian: 0 is no effect, 100 is complete control; for Plant response rating, Ryegrass, Italian: scale 0 to 100, 0 no effect, 100 complete control
# Summary of the method: as §1
# [12] = test system: soybean (Glycine max); assay: Test C preemergence; format: in vivo; conditions: for Plant response rating (scale of 0 to 100), Soybean: 0 is no effect, 100 is complete control; for Plant response rating, Soybean: scale 0 to 100, 0 no effect, 100 complete control
# Summary of the method: as §1
# [13] = test system: blackgrass (Alopecurus myosuroides); assay: Test C preemergence; format: in vivo; conditions: for Plant response rating (scale of 0 to 100), Blackgrass: 0 is no effect, 100 is complete control; for Plant response rating, Blackgrass: scale 0 to 100, 0 no effect, 100 complete control
# Summary of the method: as §1
# [14] = test system: crabgrass, large (large crabgrass, Digitaria sanguinalis); assay: Test C preemergence; format: in vivo; conditions: for Plant response rating (scale of 0 to 100), Crabgrass, Large: 0 is no effect, 100 is complete control; for Plant response rating, Crabgrass, Large: scale 0 to 100, 0 no effect, 100 complete control
# Summary of the method: as §1
# [15] = test system: ragweed (common ragweed, Ambrosia elatior); assay: Test C preemergence; format: in vivo; conditions: for Plant response rating (scale of 0 to 100), Ragweed: 0 is no effect, 100 is complete control; for Plant response rating, Ragweed: scale 0 to 100, 0 no effect, 100 complete control
# Summary of the method: as §1
# [16] = test system: Galium (catchweed bedstraw, Galium aparine); assay: Test C preemergence; format: in vivo; conditions: for Plant response rating (scale of 0 to 100), Galium: 0 is no effect, 100 is complete control; for Plant response rating, Galium: scale 0 to 100, 0 no effect, 100 complete control
# Summary of the method: as §1
# [17] = test system: lambsquarters (Chenopodium album); assay: Test C preemergence; format: in vivo; conditions: for Plant response rating (scale of 0 to 100), Lambsquarters: 0 is no effect, 100 is complete control; for Plant response rating, Lambsquarters: scale 0 to 100, 0 no effect, 100 complete control
# Summary of the method: as §1
smiles,measurement,setting,value
CN1CC(c2ccc(C(C)(F)F)cc2)C(C(=O)Nc2ccccc2F)C1=O (centres unmarked) [Compound 691],"Plant response rating (scale of 0 to 100), Barnyardgrass",[1]; 16 g ai/ha,90
same,"Plant response rating (scale of 0 to 100), Barnyardgrass",[1]; 31 g ai/ha,90
same,"Plant response rating, Barnyardgrass",[1]; 62 g ai/ha,98
same,"Plant response rating, Barnyardgrass",[1]; 125 g ai/ha,100
same,"Plant response rating (scale of 0 to 100), Corn",[2]; 16 g ai/ha,0
same,"Plant response rating (scale of 0 to 100), Corn",[2]; 31 g ai/ha,40
same,"Plant response rating, Corn",[2]; 62 g ai/ha,55
same,"Plant response rating, Corn",[2]; 125 g ai/ha,65
same,"Plant response rating (scale of 0 to 100), Morningglory",[3]; 16 g ai/ha,0
same,"Plant response rating (scale of 0 to 100), Morningglory",[3]; 31 g ai/ha,30
same,"Plant response rating, Morningglory",[3]; 62 g ai/ha,20
same,"Plant response rating, Morningglory",[3]; 125 g ai/ha,40
same,"Plant response rating (scale of 0 to 100), Waterhemp",[4]; 16 g ai/ha,85
same,"Plant response rating (scale of 0 to 100), Waterhemp",[4]; 31 g ai/ha,85
same,"Plant response rating, Waterhemp",[4]; 62 g ai/ha,95
same,"Plant response rating, Waterhemp",[4]; 125 g ai/ha,95
same,"Plant response rating (scale of 0 to 100), Wheat",[5]; 16 g ai/ha,10
same,"Plant response rating (scale of 0 to 100), Wheat",[5]; 31 g ai/ha,10
same,"Plant response rating, Wheat",[5]; 62 g ai/ha,60
same,"Plant response rating, Wheat",[5]; 125 g ai/ha,80
same,"Plant response rating (scale of 0 to 100), Velvetleaf",[6]; 16 g ai/ha,10
same,"Plant response rating (scale of 0 to 100), Velvetleaf",[6]; 31 g ai/ha,25
same,"Plant response rating, Velvetleaf",[6]; 62 g ai/ha,40
same,"Plant response rating, Velvetleaf",[6]; 125 g ai/ha,50
same,"Plant response rating (scale of 0 to 100), Foxtail, Giant",[7]; 16 g ai/ha,95
same,"Plant response rating (scale of 0 to 100), Foxtail, Giant",[7]; 31 g ai/ha,95
same,"Plant response rating, Foxtail, Giant",[7]; 62 g ai/ha,98
same,"Plant response rating, Foxtail, Giant",[7]; 125 g ai/ha,98
same,"Plant response rating (scale of 0 to 100), Pigweed",[8]; 16 g ai/ha,35
same,"Plant response rating (scale of 0 to 100), Pigweed",[8]; 31 g ai/ha,85
same,"Plant response rating, Pigweed",[8]; 62 g ai/ha,90
same,"Plant response rating, Pigweed",[8]; 125 g ai/ha,100
same,"Plant response rating (scale of 0 to 100), Nutsedge, Yellow",[9]; 16 g ai/ha,0
same,"Plant response rating (scale of 0 to 100), Nutsedge, Yellow",[9]; 31 g ai/ha,0
same,"Plant response rating, Nutsedge, Yellow",[9]; 62 g ai/ha,0
same,"Plant response rating, Nutsedge, Yellow",[9]; 125 g ai/ha,20
same,"Plant response rating (scale of 0 to 100), Oilseed Rape",[10]; 16 g ai/ha,0
same,"Plant response rating (scale of 0 to 100), Oilseed Rape",[10]; 31 g ai/ha,35
same,"Plant response rating, Oilseed Rape",[10]; 62 g ai/ha,50
same,"Plant response rating, Oilseed Rape",[10]; 125 g ai/ha,80
same,"Plant response rating (scale of 0 to 100), Ryegrass, Italian",[11]; 16 g ai/ha,0
same,"Plant response rating (scale of 0 to 100), Ryegrass, Italian",[11]; 31 g ai/ha,0
same,"Plant response rating, Ryegrass, Italian",[11]; 62 g ai/ha,35
same,"Plant response rating, Ryegrass, Italian",[11]; 125 g ai/ha,55
same,"Plant response rating (scale of 0 to 100), Soybean",[12]; 16 g ai/ha,0
same,"Plant response rating (scale of 0 to 100), Soybean",[12]; 31 g ai/ha,0
same,"Plant response rating, Soybean",[12]; 62 g ai/ha,15
same,"Plant response rating, Soybean",[12]; 125 g ai/ha,15
same,"Plant response rating (scale of 0 to 100), Blackgrass",[13]; 16 g ai/ha,0
same,"Plant response rating (scale of 0 to 100), Blackgrass",[13]; 31 g ai/ha,0
same,"Plant response rating, Blackgrass",[13]; 62 g ai/ha,5
same,"Plant response rating, Blackgrass",[13]; 125 g ai/ha,75
same,"Plant response rating (scale of 0 to 100), Crabgrass, Large",[14]; 16 g ai/ha,98
same,"Plant response rating (scale of 0 to 100), Crabgrass, Large",[14]; 31 g ai/ha,100
same,"Plant response rating, Crabgrass, Large",[14]; 62 g ai/ha,100
same,"Plant response rating, Crabgrass, Large",[14]; 125 g ai/ha,100
same,"Plant response rating (scale of 0 to 100), Ragweed",[15]; 16 g ai/ha,0
same,"Plant response rating (scale of 0 to 100), Ragweed",[15]; 31 g ai/ha,100
same,"Plant response rating, Ragweed",[15]; 62 g ai/ha,70
same,"Plant response rating, Ragweed",[15]; 125 g ai/ha,85
same,"Plant response rating (scale of 0 to 100), Galium",[16]; 16 g ai/ha,100
same,"Plant response rating (scale of 0 to 100), Galium",[16]; 31 g ai/ha,100
same,"Plant response rating, Galium",[16]; 62 g ai/ha,95
same,"Plant response rating, Galium",[16]; 125 g ai/ha,95
same,"Plant response rating (scale of 0 to 100), Lambsquarters",[17]; 16 g ai/ha,70
same,"Plant response rating (scale of 0 to 100), Lambsquarters",[17]; 31 g ai/ha,85
same,"Plant response rating, Lambsquarters",[17]; 62 g ai/ha,90
same,"Plant response rating, Lambsquarters",[17]; 125 g ai/ha,90
CN1C[C@H](c2ccc(C(F)(F)F)cc2)[C@@H](C(=O)Nc2ccccc2Br)C1=O [Compound 943],melting point,,104 to 107 °C
CSc1ccccc1NC(=O)[C@H]1C(=O)NC[C@@H]1c1ccc(C(F)(F)F)cn1 [Compound 1050],melting point,,66 to 70 °C
CN1C[C@H](c2ccc(C(F)(F)F)cn2)[C@@H](C(=O)Nc2cccc(F)c2F)C1=O [Compound 1052],melting point,,120 to 124 °C
COc1cccc([C@H]2CNC(=O)[C@@H]2C(=O)Nc2cccc(F)c2F)c1F [Compound 1061],melting point,,161 to 165 °C
O=C1NC[C@H](c2ccc(C(F)(F)F)cn2)[C@H]1C(=O)Nc1ccc(F)c(F)c1F [Compound 1105],melting point,,173 to 176 °C
C=C(C)c1ccc([C@H]2CN(C)C(=O)[C@@H]2C(=O)Nc2cccc(F)c2C)cc1 [Compound 1150],melting point,,137 to 141 °C
CN1C[C@H](c2cc(Cl)cc(Cl)c2)[C@@H](C(=O)Nc2cccc(F)c2F)C1=O [Compound 1270],melting point,,88 to 92 °C
O=C1NC[C@H](c2cc(Cl)cc(Cl)c2)[C@H]1C(=O)Nc1cccc(F)c1F [Compound 1273],melting point,,136 to 140 °C
COc1ccc([C@H]2CN(C)C(=O)[C@@H]2C(=O)Nc2ccccc2F)cc1 [Compound 1342],melting point,,103 to 107 °C
